Legend:
[1] = test system: IFNγ induced CXCL10 secretion; experiment: Inhibition of IFNγ induced CXCL10 in human 3D airway cultures; type: cell-based; details: 192 h, 8 days, 4 donors
Description: (§1) EpiAirway tissue cultures were obtained from Mattek (AIR-100). Cultures were derived from asthmatic donors. In a cell culture insert, human derived tracheal/bronchial epithelial cells were grown and differentiated on a porous membrane support, allowing an air-liquid interface with warmed culture medium below the cells and a gaseous test atmosphere above. Tissues were cultured in maintenance media ([…]) in a 37° C., 5% CO2 humidified incubator. Four donors were tested. On Day 0, tissue cultures were treated with test compounds in liquid interface at 10 μM, 1 μM and/or 0.1 μM. Compounds were diluted in dimethyl sulfoxide (DMSO, Sigma) to a final concentration of 0.1%. DMSO at 0.1% was used as a vehicle control. […] Tissue cultures were maintained for 8 days. Media was replaced every 2 days with fresh media containing compounds and IFNγ or IL-27. On Day 8, tissue cultures and supernatants were collected for analysis. Supernatant samples were assayed for CXCL10 (IP-10) and CXCL9 (MIG) using luminex analysis (EMD Millipore). Data is expressed as % Inhibition+/-standard deviation (±STDV). Percent inhibition was determined by compound inhibitory potency against IFNγ or IL-27 induced CXCL10 or CXCL9 secretion compared to vehicle treated cells. Data is the average from 4 donors.

Lung S9 metabolism = type: in vitro ADME, human
Description: The time 0, 15, 30, and 60 minute samples were analyzed for parent compound by high resolution LC-MS/MS. Lung S9 fractions from human (lot 1410245) were purchased from XenoTech LLC (Lenexa, Kans.). NADPH (Sigma Aldrich, N1630) and 3-phosphoadenosine 5-phosphosulfate (PAPS) (Sigma Aldrich, A1651) were purchased from Sigma Aldrich (St. Louis, Mo.). Acetonitrile and water were obtained from VWR (Radnor, Pa.) and were of HPLC grade or better. Raloxifene and formic acid was purchased from Sigma Aldrich (St. Louis, Mo.). Lung S9 incubations were performed in a water bath at 37° C. in a 96-well polypropylene plate. […] Louis, Mo.), 3 mM magnesium chloride (Sigma Aldrich, M1028) and in the presence of 100 μM PAPS (Sigma-Aldrich, St. […] Incubation volumes consisted of 400 μL and time points were taken at 0, 15, 30, and 60 minutes by the removal of a 70 μL aliquot and dilution into 140 μL acetonitrile (0% formic acid). All samples were centrifuged at 2250 g for 10 minutes at 5° C. Supernatant […] was taken from the centrifuged samples and diluted into 100 μL HPLC water containing internal standard. The samples were run on a Dionex Ultimate 3000 Auto sampler and analyzed using a Thermo Q-Exactive High Resolution Mass Spectrometer (Thermo, Waltham, Mass.) in Full Scan mode in conjunction with an Atlantis T3 column 3 μM-2.1×50 mm (Waters Inc., 186003717). Mobile Phase A consisted of Water+0.2% formic acid and Mobile Phase B consisted of acetonitrile +0.2% formic acid. Peak integration was accomplished using Gubbs GMSU software (Gubbs Inc., Alpharetta, Ga.). For each sample, peak area ratios were calculated by dividing the analyte peak area by the internal standard peak area. For each incubation, the peak area ratios of the analytes in each t0 was set to 100%, and the peak areas ratios from the 60 minute samples were converted to percentages remaining relative to the corresponding t0. Determination of sulfate metabolite formation was made qualitatively by observation of early-eluting peak in the parent ion channel which, based on historical internal data, corresponded to the O-sulfate metabolite of each parent compound.

[2] = Pharmacokinetics in plasma and lung in mouse; type: in vivo; details: single oral aspiration, 0.2 mg/mL, 50 μL
Description: Plasma and lung concentrations of test compounds and ratios thereof were determined in the following manner. BALB/c mice from Charles River Laboratories were used in the assay. Test compounds were individually formulated in 20% propylene glycol in pH 4 citrate buffer at a concentration of 0.2 mg/mL and 50 μL of the dosing solution was introduced into the trachea of a mouse by oral aspiration. At various time points (typically 0.167, 2, 6, 24 hr) post dosing, blood samples were removed via cardiac puncture and intact lungs were excised from the mice.

[3] = test system: IFNγ induced CXCL9 secretion; experiment: Inhibition of IFNγ induced CXCL9 in human 3D airway cultures; type: cell-based; details: 192 h, 8 days, 4 donors
Description: as §1

[4] = test system: IL-27 induced CXCL9 secretion; experiment: Inhibition of IL-27 induced CXCL9 in human 3D airway cultures; type: cell-based; details: 192 h, 8 days, 4 donors
Description: as §1

[5] = test system: IFNγ secretion in mixed lymphocyte reaction; experiment: Inhibition of IFNγ secretion in a mixed lymphocyte reaction assay; type: cell-based, human
Description: The mixed lymphocyte reaction assay is an in-vitro assay that mimics transplant rejection. T cells from one donor are cultured with allogeneic dendritic cells from another donor. This reaction induces a cellular immune response such as IFNγ secretion. CD14+ monocytes were isolated from human whole blood (Stanford blood center) of donor A using a ficoll gradient and magnetic seperation (CD14 microbeads, Miltenyi). […] Cells were harvested, washed with media, re-suspended to 400,000 cells/ml in media and plated at 10,000 cells/well/25 μl. CD4+ T cells were freshly isolated from human whole blood (Stanford blood center) of donor B using a ficoll gradient and magnetic separation (CD4+ T cell isolation kit, Miltenyi). T cells were re-susepended to 4,000,000 cells/ml in RPMI (Life Technologies) supplemented with 10% Fetal Bovine Serum (FBS, Life Technologies), 2 mM Glutamax (Life Technologies), 25 mM HEPES (Life Technologies) and 1× Pen/Strep (Life Technologies). CD4+ T cells were mixed with the dendritic cells at 100,000 cells/well/25 μl. Cells were treated with test compounds (50 μl at 20 μM, 2 μM and/or 0.2 μM) to a final concentration of 10 μM, 1 μM and/or 0.1 μM. Compounds were diluted in dimethyl sulfoxide (DMSO, Sigma) to a final concentration of 0.1%. DMSO at 0.1% was used as a vehicle control. Cells were maintained for 5 days in a 37° C., 5% CO2 humidified incubator. On day 5, supernatants were collected and measured for interferon gamma (INFγ) using enzyme linked immunosorbent assay (ELISA). Percent inhibition was determined by compound inhibitory potency against IFNγ secretion compared to vehicle treated cells. Data is the average from 4 donors.

Q: Which inhibition at 0.1 µM ([1]; 0.1 μM) does the source give for `CCc1cc(O)ccc1-c1ccc2c(-c3nc4c([nH]3)CN(C(C)C)[C@H](C(=O)N3CC(N(C)C)C3)C4)n[nH]c2c1` [Compound 1, (S)-(3-(dimethylamino)azetidin-1-yl)(2-(6-(2-ethyl-4-hydroxyphenyl)-1H-indazol-3-yl)-5-isopropyl-4,5,6,7-tetrahydro-3H-imidazo[4,5-c]pyridin-6-yl)methanone] here?
A: Its inhibition at 0.1 µM is 18%.

Q: And the inhibition at 1 µM ([1]; 1 μM)?
A: The inhibition at 1 µM was 76%.

Q: And the inhibition at 10 µM ([1]; 10 μM)?
A: Its inhibition at 10 µM is 100%.

Q: What about the “Compound Remaining at 60 min (%)” value (Lung S9 metabolism; human lung S9, 1 μM compound, 1 mg/mL S9 protein, 60 min) of the same compound?
A: Its value is 81%.

Q: What about the “Sulfate Appearance” value (Lung S9 metabolism; human lung S9, qualitative O-sulfate metabolite peak) of the same compound?
A: Its value is “Yes”.

Q: And the microsomal CLint at 1 µM (Lung S9 metabolism; human lung S9 fraction, pH 7.4, human lung S9, 1 μM compound, 1 mg/mL S9 protein, NADPH and PAPS, read-out: Clearance)?
A: The microsomal CLint at 1 µM was 3.5 µL/min/mg.

Q: What about the AUC(0-t) ([2]; BALB/c, in vivo, 10 µg/animal, read-out: Plasma AUC(0-24)) of the same compound?
A: The AUC(0-t) was 943 ng·h/mL.

Q: What about the “Lung Tissue AUC(0-24)” value [2] of the same compound?
A: Its value is 54.5 µg·h/g.

Q: What about the inhibition at 0.1 µM ([3]; 0.1 μM) of the same compound?
A: The inhibition at 0.1 µM was 16%.

Q: And the inhibition at 1 µM ([3]; 1 μM)?
A: Its inhibition at 1 µM is 93%.

Q: What about the inhibition at 10 µM ([3]; 10 μM) of the same compound?
A: The inhibition at 10 µM was 100%.

Q: What about the inhibition at 0.1 µM ([4]; 0.1 μM) of the same compound?
A: Its inhibition at 0.1 µM is 52%.

Q: What about the inhibition at 1 µM ([4]; 1 μM) of the same compound?
A: Its inhibition at 1 µM is 97%.

Q: And the inhibition at 10 µM ([4]; 10 μM)?
A: Its inhibition at 10 µM is 100%.

Q: And the inhibition at 0.1 µM ([5]; Homo sapiens, Lymphocyte, 120 h, 0.1 μM, 5 days, 4 donors)?
A: The inhibition at 0.1 µM was 43%.

Q: What about the inhibition at 10 µM ([5]; Homo sapiens, Lymphocyte, 120 h, 10 μM, 5 days, 4 donors) of the same compound?
A: The inhibition at 10 µM was 99%.

Q: What about the inhibition at 1 µM ([5]; Homo sapiens, Lymphocyte, 120 h, printed "at μM" (middle concentration, 1 μM in the method), 5 days, 4 donors) of the same compound?
A: Its inhibition at 1 µM is 76%.

Q: And the “inhibition of IFNγ secretion (in words)” value ([5]; mixed lymphocyte reaction)?
A: Its value is “effectively inhibit IFNγ secretion”.
